From ChEMBL document CHEMBL6074655, “Vindeburnol: A natural product-inspired chemical tool for central nervous system drug design” (Eur J Med Chem, 2024) come the findings set out here.

Series [1] in a line: Toxicity in female mouse assessed as mortality rate at 50 mg/kg, iv. The format is organism-based. The following applies: in vivo.
A short description of series [2]: Toxicity in male mouse assessed as mortality rate at 50 mg/kg, iv. The format is organism-based. The note with it: in vivo.

By mortality is commonly meant the percentage killed. In the case of `O[C@@H]1C[C@H]2CCCN3CCc4c(n1c1ccccc41)[C@H]23`, the mortality in series [1] was found to be 64%; in series [2] it was 70%.
